Several values for one entry are separate records, joined by “and”; a condition that tells them apart may be missing. Identical values can stand only once.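 Grown in 96-well plates, cells were treated for 48 hours with each compound at five concentrations. Insufficient inhibition: endpoint recorded as highest concentration tested. GI50 = concentration required for 50% inhibition of growth. TGI is the concentration that stops growth completely.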
Legend:
Experiment in all cases: NCI anticancer screen, dose series, 48 h
COLO 205 colon = tested on: COLO 205 colon
PC-3 prostate = tested on: PC-3 prostate
HCT-15 colon = tested on: HCT-15 colon
CCRF-CEM leukemia = tested on: CCRF-CEM leukemia
KM12 colon = tested on: KM12 colon
OVCAR-3 ovarian = tested on: OVCAR-3 ovarian
A498 renal = tested on: A498 renal
SR leukemia = tested on: SR leukemia
SNB-75 CNS = tested on: SNB-75 CNS
NCI-H23 lung = tested on: NCI-H23 lung

SMILES | GI50 (COLO 205 colon) [µM] | TGI (COLO 205 colon) | GI50 (PC-3 prostate) | TGI (PC-3 prostate) [µM] | GI50 (HCT-15 colon) | TGI (HCT-15 colon) [µM] | GI50 (CCRF-CEM leukemia) | TGI (CCRF-CEM leukemia) | GI50 (KM12 colon) | TGI (KM12 colon) [µM] | GI50 (OVCAR-3 ovarian) | TGI (OVCAR-3 ovarian) | GI50 (A498 renal) | TGI (A498 renal) | GI50 (SR leukemia) [µM] | TGI (SR leukemia) [µM] | GI50 (SNB-75 CNS) | TGI (SNB-75 CNS) | GI50 (NCI-H23 lung) [µM] | TGI (NCI-H23 lung)
c1ccc(CNCCN(CCNCc2ccccn2)Cc2ccc3ccccc3c2)nc1 | 2.27 | 4.57 µM | 1.92 µM | 6.13 | 1.16 µM | 5.01 | 3.08 µM | 10.3 µM | 2.14 µM | 4.85 | 1.83 µM | 3.74 µM | 1.86 µM | 3.71 µM | 2.88 | 7.83 | 2.03 µM | 9.98 µM | 2.26 | 6.19 µM
CC[C@@H](C)/C=C(C)/C=C/C(=O)c1c(O)c(-c2ccc(O)cc2)cn(O)c1=O | 7.19 | 20.6 µM | 3.2 µM | 18.8 | 0.396 µM | 16.1 | 0.314 µM | 13.1 µM | 1.99 µM | 12.7 | 0.395 µM | 13 µM | 0.479 µM | 13.1 µM | 0.25 | 4.82 | 1.38 µM | 15.7 µM | 0.562 | 9.93 µM
Nc1nc(/C=C\c2ccccc2)nc(N2CCN(c3ccccc3)CC2)n1 | 16.4 | 35.8 µM | 27.9 µM | > 100 | 16.3 µM | 78 | 37.3 µM | > 100 µM | 27.2 µM | 60.6 | 28.2 µM | 57.5 µM | 35.1 µM | 87.9 µM | 35.8 | > 100 | 22.2 µM | 69.4 µM | – | –
O=C1/C(=C/c2ccc(Cl)cc2)CNC/C1=C\c1ccc(Cl)cc1 | 2.61 | 4.25 µM and 8.35 µM | – | 21.2 | – | 2.6 | 0.596 µM and 1.32 µM | 10.3 µM and > 100 µM | – | 3.07 | – | 4.87 µM and 4.9 µM | – | 5.01 µM and 25.6 µM | – | > 100 | – | 10.3 µM and > 29.5 µM | – | 4.17 µM and 4.24 µM
Nc1ccccc1C(=O)CCC1C(=O)NC(=S)NC1=O | – | > 100 µM | – | > 100 | – | > 100 | – | > 100 µM | – | > 100 | – | > 100 µM | – | > 100 µM | – | > 100 | – | > 89.6 µM | – | > 100 µM
O=C(CCN1CCCCC1)N1CCc2c([nH]c3ccccc23)C1c1cccnc1 (stereo not drawn) | – | 44.8 µM | – | > 100 | – | > 100 | – | 99 µM | – | > 100 | – | > 100 µM | – | > 100 µM | – | > 100 | – | > 92.1 µM | – | > 100 µM
Oc1c(Cl)cc(Cl)c2ccc(Cn3cc(-c4ccc(C(F)(F)F)cc4)nn3)nc12 | 1.39 | 3.14 µM | 3 µM | 11.1 | 1.42 µM | 3.3 | 0.357 µM | > 100 µM | 12.1 µM | 26.6 | 1.33 µM | 2.74 µM | 3.57 µM | 13.8 µM | 0.651 | > 100 | 1.74 µM | 10.8 µM | 2.04 | 4.76 µM
CN1CCN(Cc2ccc(NC(=O)c3cncc(C#Cc4cnc(N)c5cccnc45)c3)cc2C(F)(F)F)CC1 | 0.0956 | 1.12 µM | 0.665 µM | > 50 | 1.85 µM | > 50 | 0.234 µM | > 50 µM | 0.069 µM | > 50 | 0.589 µM | > 50 µM | 0.112 µM | 0.723 µM | 0.293 | > 50 | 0.469 µM | > 12 µM | 0.496 | > 50 µM
NS(=O)(=O)c1cc(C(=O)O)c(O)c2ccccc12 | – | > 100 µM | – | > 100 | – | > 100 | – | > 100 µM | – | > 100 | – | > 100 µM | – | > 100 µM | – | > 100 | – | > 100 µM | – | > 100 µM
COc1cc(C(=O)c2cnc(-c3cccc4[nH]ccc34)[nH]2)cc(OC)c1OC | – | < 0.01 µM | 0.0457 µM and < 0.01 µM | > 100 | 0.0915 µM and < 0.01 µM | > 100 | – | > 100 µM | 0.04 µM and < 0.01 µM | 24 | 0.0366 µM and < 0.01 µM | – | 0.049 µM and < 0.01 µM | – | < 0.01 | > 100 | 0.0295 µM and < 0.01 µM | > 100 µM | – | > 100 µM
CSc1nc2c(c(=O)n1C)CN(C1CCCCC1)C(=O)C(c1ccccc1)N2 (stereo not drawn) | 30.9 | > 100 µM | 21.7 µM | > 100 | 16.1 µM | > 100 | 11.3 µM | > 100 µM | 27.6 µM | > 100 | 20.1 µM | 82 µM | 0.292 µM | 37.6 µM | 6.38 | > 100 | 95.8 µM | > 100 µM | 51.2 | > 100 µM
COC(=O)c1oc2c(C(=O)/C=C/c3ccc(OC)cc3)c(OCCN(C)C)ccc2c1C | 4.59 | 19.3 µM | 8.43 µM | 21.7 | 4.13 µM | 16.8 | 2.24 µM | 6.93 µM | 9.43 µM | 24.5 | 7.19 µM | 21.3 µM | 10.1 µM | 22.6 µM | 2.37 | 7.38 | 9.94 µM | 22.2 µM | 9.76 | 26.1 µM
CO[C@H]1CC(O[C@@H]2/C(C)=C/C[C@@H]3C[C@@H](C[C@]4(CC[C@H](C)[C@@H](C5CCCCC5)O4)O3)OC(=O)[C@@H]3C=C(C)/C(=N/O)[C@H]4OC/C(=C\C=C\[C@@H]2C)[C@]43O)O[C@@H](C)C1O (stereo partly drawn) | 0.93 | 1.8 µM | 0.704 µM | 1.84 | 0.873 µM | 1.95 | – | – | 0.826 µM | 1.52 | 0.864 µM | 1.62 µM | 0.802 µM | 1.95 µM | 1.11 | 2.79 | 0.867 µM | 2.57 µM | 1.01 | 2.65 µM
CCN(CC)CCCC(C)N/C(=C1\C(=O)NC(=O)\C1=C(/NC(C)CCCN(CC)CC)c1cccc(OC)c1)c1cccc(OC)c1 (stereo not drawn) | 0.728 | 1.65 µM | 0.877 µM | 2.56 | 0.764 µM | 4.07 | 0.816 µM | 2.89 µM | 0.835 µM | 4.06 | 1.12 µM | 3.2 µM | 0.791 µM | 5.58 µM | 0.444 | 2.13 | 0.735 µM | 1.67 µM | 1.19 | 3.15 µM

From PubChem BioAssay (NCI)
